“Also recorded” adds a separate entry of the source.
What was measured:
[1] = system: human AZ521 gastric tumor xenograft; assay: AZ521 gastric tumor xenograft, combination with taxol; format: in vivo, mouse; conditions: AZ521, Compound D 40 mg/kg oral daily 14 days with taxol 20 mg/kg i.v.
Description: Antitumor studies were done using human AZ521 gastric tumor xenograft model in male BALBc/A nude mice (from Japan Crea Inc., Japan). Male nude mice were used at age 8-10 weeks. Human carcinoma cells were injected subcutaneously in the animal flank and allowed to form solid tumors. Tumor fragments (about 2 mm^2 fragments) were then removed and implanted subcutaneously to the right flank of other animals. When the tumor sizes reached about 100 to 200 mm^3, recipient animals were treated Compound D (40 mg/kg, suspended with 0.5% HPMC) by oral administration alone, or taxol by i.v. injection (20 mg/kg), or combination of taxol with oral administration of Compound D. Typically, taxol was administered once per week by iv injection on the first day as a single administration, while Compound D was administered once daily for 14 days. Tumor volumes and gross body weight of animals were monitored twice weekly for up to 2 weeks. Each experimental group contained 6 animals.

[2] = system: TSP-1 expression in cancer cells (Du145, H460, A549); assay: TSP-1 transcription in cancer cells in vitro; format: cell-based, human; conditions: over time, 3 microM, 24 hours
Description: (§1) Cells were exposed by Cpd A or SAHA (3 microM) for 24 hours. Total RNA was collected by Isogen (Nippongene, Tokyo, Japan) and reverse-transcribed to cDNA by ExScript® RT reagent Kit (TAKARA, Kyoto, Japan). The expression level of TSP-1 mRNA was detected by ABI7700 analyzer using a probe/primer pre-mixture reagent (ABI, Cat#, CA, USA) and TaqMan® Universal PCR Master Mix (ABI, Cat# 430-4437) as described in the ABI's protocol.

[3] = system: bFGF transcription in human prostate cancer Du145 cells; assay: bFGF transcription in Du145 cells in vitro; format: cell-based; conditions: 3 μM, 24 hour treatment
Description: as §1, with “Human prostate cancer Du145 cells were” for “Cells were”, “exposed to” for “exposed by”, “of bFGF” for “of TSP-1”, “using” for “using a”, “(ABI, Cat# Hs00266645_m1,” for “(ABI, Cat#,”, “protocol. The expression level of VEGF mRNA was detected in a similar manner using the appropriate probe/primer reagents.” for “protocol.”

[4] = system: MT3 transcription in implanted H460 tumors; assay: MT3 transcription in implanted H460 tumors in vivo; set-up: species or system mouse; conditions: H460 tumors in mice, single dose 100 mg/kg po
Description: 6 hours or 24 hours post drug administration, mice were sacrificed and tumor excised and put in RNAlater (Ambion, Austin, Tex.) and stored at −70 C until RNAs were extracted using QiaShredder and RNeasy mini kit (Qiagen). For real time RT-PCR to determine MT3 transcription level, 1 μg RNA was converted into cDNA using Expand RT enzyme (Roche) and Oligo(dT) primers (Invitrogen) in a 20 μl reaction volume. For quantitative real-time PCR, the primers used for MT3 were 5′CCCTGCGGAGTGTGAGAAGT 3′ and 5′TGCTTCTGCCTCAGCTGCCT 3′ and those for β-actin were 5′CTCTTCCAGCCTTCCTTCCT 3′ and 5′AGCACTGTGTTGGCGTACAG 3′. Reactions with either pair of primers included an annealing temperature of 63.4° C. All real-time PCR reactions were performed on the MasterCycler ep Realplex (Eppendorf) using FastStart SYBRGreen Master (Roche).

[5] = system: human H460 non-small cell lung tumor xenograft; assay: H460 xenograft, iv-iv combination with taxol; format: in vivo, mouse; conditions: H460, Compound A 40 mg/kg i.v. with taxol 60 mg/kg i.v., single dose day 1
Description: Antitumor studies were done using human H460 non-small cell lung tumor xenograft model in male BALBc/A nude mice (from Japan Crea Inc., Japan). Male nude mice were used at age 8-10 weeks. Human carcinoma cells were injected subcutaneously in the animal flank and allowed to form solid tumors. Tumor fragments (about 2 mm^3 fragments) were then removed and implanted subcutaneously to the right flank of other animals. […] Tumor volumes and gross body weight of animals were monitored twice weekly for up to 15 days. Each experimental group contained 6 animals.

[6] = system: VEGF expression in DU145 cells; assay: VEGF transcription in Du145 cells in vitro; format: cell-based, human; conditions: 24 hour treatment
Description: as §1, with “Human prostate cancer Du145 cells were” for “Cells were”, “exposed to” for “exposed by”, “of bFGF” for “of TSP-1”, “using” for “using a”, “(ABI, Cat# Hs00266645_m1,” for “(ABI, Cat#,”, “protocol. The expression level of VEGF mRNA was detected in a similar manner using the appropriate probe/primer reagents.” for “protocol.”

[7] = system: tubulin acetylation in human bladder carcinoma T24 cells; assay: Cell-based ELISA for tubulin acetylation
Description: Bladder carcinoma T24 cells were seeded in black plates with clear bottoms (Costar #3603) at 1×10^4 cells per well in a volume of 100 μl per well, and were allowed to settle for one day at 37° C. in a CO2 incubator. The cells were treated for 16 h with various concentrations of HDAC inhibitors. 3 h before the end of the treatment, Alamar Blue (BioSource) was added to monitor cell viability according to the manufacturer's instructions. At the end of the treatment time, Alamar Blue OD (at 570 nm and 600 nm) was recorded, then the cells were carefully washed in PBS, fixed in pre-chilled methanol for 10 min at −20° C., washed again twice in PBS, and blocked in PBS containing 0.1% Triton X-100 and 1% BSA for a minimum of 30 min. For H3 acetylation, rabbit-anti-acetyl-H3 (Upstate #06-599) was used as primary antibody at a dilution of 1:1000 for 45 min; the secondary antibody was HRP-coupled goat-anti-rabbit (Sigma #A-0545), used at 1:8000 for 45 min. For tubulin acetylation, the primary antibody was mouse anti-acetyl-tubulin (Sigma #T-6793, 1:2000, 45 min) while the secondary was HRP-coupled goat-anti-mouse antibody (Sigma #A-2304, 1:8000, 45 min). All antibodies were diluted in blocking buffer, and the cells were washed in blocking buffer following each antibody incubation. […] The fluorescent signal for acetylation was normalized by dividing with the viability data obtained from Alamar Blue. EC50 was defined as the concentration of compound which gave a signal half-way between the basal (untreated) level and the maximum level generated by high doses of the HDAC pan-inhibitor NVP-LAQ-824.

| Compound | antitumor activity of taxol [1] | TSP-1 expression [2] | bFGF transcription [3] | MT3 transcription in tumors [4] | antitumor activity of taxol [5] | VEGF expression [6] | tubulin acetylation [7] |
| --- | --- | --- | --- | --- | --- | --- | --- |
| Nc1ccc(-c2ccccc2)cc1NC(=O)c1ccc(N2CC[C@H](N)C2)cc1 [Compound D] | Potentiation |  |  |  |  |  |  |
| Nc1ccccc1NC(=O)c1ccc(CNc2nccc(-c3cccnc3)n2)cc1 [Compound A] |  | induction | more dramatic than by SAHA; also recorded: suppression | induction | Potentiation | suppression | but not tubulin acetylation |

Source: patent publication US20090124631A1, “Combination Therapy” (priority 2007, published 2009)
